# Test results: US9694016B2 (Novartis AG, priority 2013, dated 2017)
# pIC50: −log10 of the molar value.
# Molecular target: b-Raf (V600E) (Homo sapiens (Human), UniProt P15056, V600E)
# Details: read-out: b-Raf IC-50; AlphaScreen, 60 min pre-incubation, reaction 3 hours at room temperature
# b-Raf (V600E), sequence (P15056 whole entry V600E): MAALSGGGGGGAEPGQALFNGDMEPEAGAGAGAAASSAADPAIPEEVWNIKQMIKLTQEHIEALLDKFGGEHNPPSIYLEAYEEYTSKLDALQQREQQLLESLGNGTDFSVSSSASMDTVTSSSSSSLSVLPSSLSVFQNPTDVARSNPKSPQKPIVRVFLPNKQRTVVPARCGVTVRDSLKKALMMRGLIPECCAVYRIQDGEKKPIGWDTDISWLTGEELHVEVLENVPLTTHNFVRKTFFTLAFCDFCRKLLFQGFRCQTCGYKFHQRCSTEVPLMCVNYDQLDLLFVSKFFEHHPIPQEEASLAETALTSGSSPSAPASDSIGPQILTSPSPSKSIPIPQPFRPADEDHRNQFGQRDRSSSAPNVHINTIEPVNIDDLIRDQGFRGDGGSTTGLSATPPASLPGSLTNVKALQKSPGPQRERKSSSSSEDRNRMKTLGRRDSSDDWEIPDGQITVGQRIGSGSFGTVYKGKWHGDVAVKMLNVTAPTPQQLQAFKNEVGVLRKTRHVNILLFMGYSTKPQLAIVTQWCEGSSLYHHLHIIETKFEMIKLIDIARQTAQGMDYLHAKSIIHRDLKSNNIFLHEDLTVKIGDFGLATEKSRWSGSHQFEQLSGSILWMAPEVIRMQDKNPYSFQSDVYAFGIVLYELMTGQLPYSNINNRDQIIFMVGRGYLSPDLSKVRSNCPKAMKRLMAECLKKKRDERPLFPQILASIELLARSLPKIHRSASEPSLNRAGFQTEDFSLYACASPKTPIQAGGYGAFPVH
row,pIC50,SMILES
1,8.71,"CCC(F)(F)c1cc(C(=O)Nc2cnc(C)c(-c3cc(N4CCOCC4)c(OCC(F)F)nn3)c2)ccn1 [Example 914, N-(5-(6-(2,2-difluoroethoxy)-5-morpholinopyridazin-3-yl)-6-methylpyridin-3-yl)-2-(1,1-difluoropropyl)isonicotinamide]"
2,8.95,"Cc1ncc(NC(=O)c2ccnc(C(C)(F)F)c2)cc1-c1cc(N2CCOCC2)c(OCC(F)F)nn1 [Example 915, N-(5-(6-(2,2-difluoroethoxy)-5-morpholinopyridazin-3-yl)-6-methylpyridin-3-yl)-2-(1,1-difluoroethyl)isonicotinamide]"
3,8.88,"Cc1ncc(NC(=O)c2cc(C(F)(F)F)ccn2)cc1-c1cc(N2CCOCC2)c(OCC(F)F)nn1 [Example 916, N-(5-(6-(2,2-difluoroethoxy)-5-morpholinopyridazin-3-yl)-6-methylpyridin-3-yl)-4-(trifluoromethyl)picolinamide]"
4,9.10,"Cc1ncc(NC(=O)c2cncc(C(F)(F)F)c2)cc1-c1cc(N2CCOCC2)c(OCC(F)F)nn1 [Example 917, N-(5-(6-(2,2-difluoroethoxy)-5-morpholinopyridazin-3-yl)-6-methylpyridin-3-yl)-5-(trifluoromethyl)nicotinamide]"
5,8.93,"Cc1ncc(NC(=O)c2cccc(C(F)(F)F)c2)cc1-c1cc(N2CCOCC2)c(OCC(F)F)nn1 [Example 918, N-(5-(6-(2,2-difluoroethoxy)-5-morpholinopyridazin-3-yl)-6-methylpyridin-3-yl)-3-(trifluoromethyl)benzamide]"
6,8.39,"Cc1ncc(NC(=O)c2cccc(C(F)(F)F)c2)cc1-c1cc(N2CCOCC2)c(S(C)(=O)=O)nn1 [Example 919, N-(6-methyl-5-(6-(methylsulfonyl)-5-morpholinopyridazin-3-yl)pyridin-3-yl)-3-(trifluoromethyl)benzamide]"
7,8.05,"Cc1ncc(NC(=O)c2ccnc(C(C)(F)F)c2)cc1-c1cc(N2CCOCC2)c(S(C)(=O)=O)nn1 [Example 920, 2-(1,1-difluoroethyl)-N-(6-methyl-5-(6-(methylsulfonyl)-5-morpholinopyridazin-3-yl)pyridin-3-yl)isonicotinamide]"
8,8.11,"Cc1ncc(NC(=O)c2ccnc(C(F)(F)F)c2)cc1-c1cc(N2CCOCC2)c(S(C)(=O)=O)nn1 [Example 921, N-(6-methyl-5-(6-(methylsulfonyl)-5-morpholinopyridazin-3-yl)pyridin-3-yl)-2-(trifluoromethyl)isonicotinamide]"
9,8.26,"Cc1ncc(NC(=O)c2cc(C(F)(F)F)ccn2)cc1-c1cc(N2CCOCC2)c(S(C)(=O)=O)nn1 [Example 923, N-(6-methyl-5-(6-(methylsulfonyl)-5-morpholinopyridazin-3-yl)pyridin-3-yl)-4-(trifluoromethyl)picolinamide]"
10,7.24,"Cc1ncc(NC(=O)c2ccnc(C(C)(C)C#N)c2)cc1-c1cc(N2CCOCC2)c(S(C)(=O)=O)nn1 [Example 924, 2-(2-cyanopropan-2-yl)-N-(6-methyl-5-(6-(methylsulfonyl)-5-morpholinopyridazin-3-yl)pyridin-3-yl)isonicotinamide]"
11,7.91,"CCC(F)(F)c1cc(C(=O)Nc2cnc(C)c(-c3cc(N4CCOCC4)c(S(C)(=O)=O)nn3)c2)ccn1 [Example 925, 2-(1,1-difluoropropyl)-N-(6-methyl-5-(6-(methylsulfonyl)-5-morpholinopyridazin-3-yl)pyridin-3-yl)isonicotinamide]"
12,8.67,"CCC(F)(F)c1cc(C(=O)Nc2ccc(C)c(-c3cc(N4CCOCC4)c(S(C)(=O)=O)nn3)c2)ccn1 [Example 926, 2-(1,1-difluoropropyl)-N-(4-methyl-3-(6-(methylsulfonyl)-5-morpholinopyridazin-3-yl)phenyl)isonicotinamide]"
13,8.10,"Cc1ncc(NC(=O)c2ccnc(C(C)(C)F)c2)cc1-c1cc(N2CCOCC2)c(S(C)(=O)=O)nn1 [Example 927, 2-(2-fluoropropan-2-yl)-N-(6-methyl-5-(6-(methylsulfonyl)-5-morpholinopyridazin-3-yl)pyridin-3-yl)isonicotinamide]"
14,8.72,"Cc1ccc(NC(=O)c2ccnc(C(C)(C)F)c2)cc1-c1cc(N2CCOCC2)c(S(C)(=O)=O)nn1 [Example 928, 2-(2-fluoropropan-2-yl)-N-(4-methyl-3-(6-(methylsulfonyl)-5-morpholinopyridazin-3-yl)phenyl)isonicotinamide]"
15,8.98,"Cc1ccc(NC(=O)c2ccnc(C(C)(F)F)c2)cc1-c1cc(N2CCOCC2)c(S(C)(=O)=O)nn1 [Example 929, 2-(1,1-difluoroethyl)-N-(4-methyl-3-(6-(methylsulfonyl)-5-morpholinopyridazin-3-yl)phenyl)isonicotinamide]"
16,8.99,Cc1ccc(NC(=O)c2ccnc(C(F)(F)F)c2)cc1-c1cc(N2CCOCC2)c(S(C)(=O)=O)nn1 [Example 930]
17,8.57,"Cc1ccc(NC(=O)c2ccnc(C(C)(C)C#N)c2)cc1-c1cc(N2CCOCC2)c(S(C)(=O)=O)nn1 [Example 931, 2-(2-cyanopropan-2-yl)-N-(4-methyl-3-(6-(methylsulfonyl)-5-morpholinopyridazin-3-yl)phenyl)isonicotinamide]"

row,pIC50,SMILES
1,8.16,"Cc1ccc(NC(=O)c2ccnc(C(C)(C)O)c2)cc1-c1cc(N2CCOCC2)c(S(C)(=O)=O)nn1 [Example 932, 2-(2-hydroxypropan-2-yl)-N-(4-methyl-3-(6-(methylsulfonyl)-5-morpholinopyridazin-3-yl)phenyl)isonicotinamide]"
2,9.11,"Cc1ccc(NC(=O)c2cc(C(F)(F)F)ccn2)cc1-c1cc(N2CCOCC2)c(S(C)(=O)=O)nn1 [Example 933, N-(4-methyl-3-(6-(methylsulfonyl)-5-morpholinopyridazin-3-yl)phenyl)-4-(trifluoromethyl)picolinamide]"
3,8.38,"COc1ncc(-c2cc(NC(=O)c3cccc(C(F)(F)F)c3)nnc2C)cc1N1CCOCC1 [Example 934, N-(5-(6-methoxy-5-morpholinopyridin-3-yl)-6-methylpyridazin-3-yl)-3-(trifluoromethyl)benzamide]"
4,8.69,"Cc1ncc(NC(=O)c2cncc(C(F)(F)F)c2)cc1-c1cnc(OCC(F)F)c(N2CCOCC2)c1 [Example 935, N-(6′-(2,2-difluoroethoxy)-2-methyl-5′-morpholino-[3,3′-bipyridin]-5-yl)-5-(trifluoromethyl)nicotinamide]"
5,8.12,"Cc1ncc(NC(=O)c2cnnc(C3(C#N)CC3)c2)cc1-c1cnc(OCC(F)F)c(N2CCOCC2)c1 [Example 936, 6-(1-cyanocyclopropyl)-N-(6′-(2,2-difluoroethoxy)-2-methyl-5′-morpholino-[3,3′-bipyridin]-5-yl)pyridazine-4-carboxamide]"
6,8.34,"Cc1ncc(NC(=O)c2cccc(S(C)(=O)=O)c2)cc1-c1cnc(OC2CCOCC2)c(N2CCOCC2)c1 [Example 937, N-(2-methyl-5′-morpholino-6′-((tetrahydro-2H-pyran-4-yl)oxy)-[3,3′-bipyridin]-5-yl)-3-(methylsulfonyl)benzamide]"
7,8.63,"Cc1ncc(NC(=O)c2ccnc(C(C)(F)F)c2)cc1-c1cnc(OC2CCOCC2)c(N2CCOCC2)c1 [Example 938, 2-(1,1-difluoroethyl)-N-(2-methyl-5′-morpholino-6′-((tetrahydro-2H-pyran-4-yl)oxy)-[3,3′-bipyridin]-5-yl)isonicotinamide]"
8,7.81,"Cc1ncc(NC(=O)c2ccnc(C(C)(C)O)c2)cc1-c1cnc(OC2CCOCC2)c(N2CCOCC2)c1 [Example 939, 2-(2-hydroxypropan-2-yl)-N-(2-methyl-5′-morpholino-6′-((tetrahydro-2H-pyran-4-yl)oxy)-[3,3′-bipyridin]-5-yl)isonicotinamide]"
9,8.64,"Cc1ncc(NC(=O)c2ccnc(C3CC3)c2)cc1-c1cnc(OC2CCOCC2)c(N2CCOCC2)c1 [Example 941, 2-cyclopropyl-N-(2-methyl-5′-morpholino-6′-((tetrahydro-2H-pyran-4-yl)oxy)-[3,3′-bipyridin]-5-yl)isonicotinamide]"
10,8.66,"Cc1ncc(NC(=O)c2cc(C(F)(F)F)ccn2)cc1-c1cnc(OC2CCOCC2)c(N2CCOCC2)c1 [Example 942, N-(2-methyl-5′-morpholino-6′-((tetrahydro-2H-pyran-4-yl)oxy)-[3,3′-bipyridin]-5-yl)-4-(trifluoromethyl)picolinamide]"
11,8.02,"Cc1ncc(NC(=O)c2cc(C(C)(C)C#N)ccn2)cc1-c1cnc(OC2CCOCC2)c(N2CCOCC2)c1 [Example 943, 4-(2-cyanopropan-2-yl)-N-(2-methyl-5′-morpholino-6′-((tetrahydro-2H-pyran-4-yl)oxy)-[3,3′-bipyridin]-5-yl)picolinamide]"
12,8.41,"Cc1ncc(NC(=O)c2cnnc(C3(C#N)CC3)c2)cc1-c1cnc(OC2CCOCC2)c(N2CCOCC2)c1 [Example 944, 6-(1-cyanocyclopropyl)-N-(2-methyl-5′-morpholino-6′-((tetrahydro-2H-pyran-4-yl)oxy)-[3,3′-bipyridin]-5-yl)pyridazine-4-carboxamide]"
13,8.87,"Cc1ccc(NC(=O)c2ccnc(C(C)(F)F)c2)cc1-c1cnc(OC(C)C)c(N2CCOCC2)c1 [Example 945, 2-(1,1-difluoroethyl)-N-(3-(6-isopropoxy-5-morpholinopyridin-3-yl)-4-methylphenyl)isonicotinamide]"
14,8.63,"Cc1ccc(NC(=O)c2ccnc(C(C)(C)F)c2)cc1-c1cnc(OC(C)C)c(N2CCOCC2)c1 [Example 946, 2-(2-fluoropropan-2-yl)-N-(3-(6-isopropoxy-5-morpholinopyridin-3-yl)-4-methylphenyl)isonicotinamide]"
15,8.75,"Cc1ccc(NC(=O)c2ccnc(C(C)(C)O)c2)cc1-c1cnc(OC(C)C)c(N2CCOCC2)c1 [Example 947, 2-(2-hydroxypropan-2-yl)-N-(3-(6-isopropoxy-5-morpholinopyridin-3-yl)-4-methylphenyl)isonicotinamide]"
16,8.63,"Cc1ccc(NC(=O)c2cc(C(C)(C)C#N)ccn2)cc1-c1cnc(OC(C)C)c(N2CCOCC2)c1 [Example 948, 4-(2-cyanopropan-2-yl)-N-(3-(6-isopropoxy-5-morpholinopyridin-3-yl)-4-methylphenyl)picolinamide]"
